Assay results published in patent publication US6770597B2, “Benzohydrazide derivatives as herbicides and desiccant compositions containing them” (Ishihara Sangyo Kaisha, Ltd., priority 2002, dated 2004).

What was measured:
Assay type in all cases: in vivo
[1] = test system: barnyardgrass (Echinochloa crus-galli, ECHCG); assay: Greenhouse herbicide screen, post-emerge application, phytotoxicity rating; conditions: POST emergent, 14 days after application, scale 0-100
In short: (§1)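 Seeds went into sandy loam soil mix, one day before spraying for pre-emergence or 8–21 days before for post-emergence. Test substances in acetone were then sprayed at rates of 15–1000 g ai/ha. Damage was scored 0–100 fourteen days later.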

[2] = test system: cocklebur (Xanthium strumarium, XANST); assay: as above; conditions: POST emergent, 14 days after application, scale 0-100
In short: as §1

[3] = test system: common ragweed (Ambrosia artemisiifolia L., AMBEL); assay: as above; conditions: POST emergent, 14 days after application, scale 0-100
In short: as §1

[4] = test system: green foxtail (Setaria viridis, SETVI); assay: as above; conditions: POST emergent, 14 days after application, scale 0-100
In short: as §1

[5] = test system: ivyleaf morningglory (Ipomoea hederacea, IPOHE); assay: as above; conditions: POST emergent, 14 days after application, scale 0-100
In short: as §1

[6] = test system: johnsongrass (Sorghum halepense, SORHA); assay: as above; conditions: POST emergent, 14 days after application, scale 0-100
In short: as §1

[7] = test system: lambsquarters (Chenopodium album, CHEAL); assay: as above; conditions: POST emergent, 14 days after application, scale 0-100
In short: as §1

[8] = test system: large crabgrass (Digitaria sanguinalis, DIGSA); assay: as above; conditions: POST emergent, 14 days after application, scale 0-100
In short: as §1

[9] = test system: redroot pigweed (Amaranthus retrofiexus, AMARE); assay: as above; conditions: POST emergent, 14 days after application
In short: as §1

[10] = test system: sicklepod (Cassia obtusifolia, CASOB); assay: as above; conditions: POST emergent, 14 days after application, scale 0-100
In short: as §1

[11] = test system: velvetleaf (Abutilon theophrasti, ABUTH); assay: as above; conditions: POST emergent, 14 days after application, scale 0-100
In short: as §1

[12] = test system: field corn (Zea mays L., var. Dekalb 535, CORN); assay: Greenhouse herbicide screen, post-emerge application, crop damage rating; conditions: POST emergent, 14 days after application, scale 0-100
In short: as §1

[13] = test system: upland rice (Oryza sp., var.Cocodrie, RICE); assay: as above; conditions: POST emergent, 14 days after application, scale 0-100
In short: as §1

[14] = test system: barnyardgrass (Echinochloa crus-galli, ECHCG); assay: Greenhouse herbicide screen, pre-emerge application, phytotoxicity rating; conditions: PRE emergent, 14 days after application, rating scale 0-100
In short: as §1

[15] = test system: cocklebur (Xanthium strumarium, XANST); assay: as above; conditions: PRE emergent, 14 days after application, rating scale 0-100
In short: as §1

[16] = test system: common ragweed (Ambrosia artemisiifolia L., AMBEL); assay: as above; conditions: PRE emergent, 14 days after application, rating scale 0-100
In short: as §1

[17] = test system: green foxtail (Setaria viridis, SETVI); assay: as above; conditions: PRE emergent, 14 days after application, rating scale 0-100
In short: as §1

[18] = test system: ivyleaf morningglory (Ipomoea hederacea, IPOHE); assay: as above; conditions: PRE emergent, 14 days after application, rating scale 0-100
In short: as §1

[19] = test system: johnsongrass (Sorghum halepense, SORHA); assay: as above; conditions: PRE emergent, 14 days after application, rating scale 0-100
In short: as §1

[20] = test system: lambsquarters (Chenopodium album, CHEAL); assay: as above; conditions: PRE emergent, 14 days after application, rating scale 0-100
In short: as §1

[21] = test system: large crabgrass (Digitaria sanguinalis, DIGSA); assay: as above; conditions: PRE emergent, 14 days after application, rating scale 0-100
In short: as §1

[22] = test system: redroot pigweed (Amaranthus retrofiexus, AMARE); assay: as above; conditions: PRE emergent, 14 days after application, rating scale 0-100
In short: as §1

[23] = test system: sicklepod (Cassia obtusifolia, CASOB); assay: as above; conditions: PRE emergent, 14 days after application, rating scale 0-100
In short: as §1

[24] = test system: velvetleaf (Abutilon theophrasti, ABUTH); assay: as above; conditions: PRE emergent, 14 days after application, rating scale 0-100
In short: as §1

[25] = test system: field corn (Zea mays L., var. Dekalb 535, CORN); assay: Greenhouse herbicide screen, pre-emerge application, crop damage rating; conditions: PRE emergent, 14 days after application, rating scale 0-100
In short: as §1

[26] = test system: upland rice (Oryza sp., var.Cocodrie, RICE); assay: as above; conditions: PRE emergent, 14 days after application, rating scale 0-100
In short: as §1

[27] = 63 g ai/ha, scale 0-100 (0 no damage, 100 complete death)

CC(=O)OC(=NN(C)C)c1cc(-n2c(=O)cc(C(F)(F)F)n(C)c2=O)ccc1Cl [Compound 4-4]
100: phytotoxicity rating AMBEL ([3]; 250 g ai/ha) | phytotoxicity rating IPOHE ([5]; 63 g ai/ha) | phytotoxicity rating IPOHE ([5]; 250 g ai/ha) | phytotoxicity rating CHEAL ([7]; 63 g ai/ha) | phytotoxicity rating CHEAL ([7]; 250 g ai/ha) | phytotoxicity rating DIGSA ([8]; 250 g ai/ha) | phytotoxicity rating AMARE [9, 27] | phytotoxicity rating AMARE ([9]; 250 g ai/ha, scale 0-100) | phytotoxicity rating ABUTH ([11]; 63 g ai/ha) | phytotoxicity rating ABUTH ([11]; 250 g ai/ha) | phytotoxicity rating AMBEL ([16]; 250 g ai/ha) | phytotoxicity rating IPOHE ([18]; 63 g ai/ha) | phytotoxicity rating IPOHE ([18]; 250 g ai/ha) | phytotoxicity rating CHEAL ([20]; 63 g ai/ha) | phytotoxicity rating CHEAL ([20]; 250 g ai/ha) | phytotoxicity rating DIGSA ([21]; 250 g ai/ha) | phytotoxicity rating AMARE ([22]; 63 g ai/ha) | phytotoxicity rating AMARE ([22]; 250 g ai/ha) | phytotoxicity rating ABUTH ([24]; 63 g ai/ha) | phytotoxicity rating ABUTH ([24]; 250 g ai/ha)
25: crop damage rating CORN ([12]; 63 g ai/ha) | crop damage rating CORN ([25]; 63 g ai/ha)
90: phytotoxicity rating ECHCO ([1]; 250 g ai/ha) | phytotoxicity rating SETVI ([4]; 250 g ai/ha) | phytotoxicity rating SORHA ([6]; 250 g ai/ha) | crop damage rating CORN ([12]; 250 g ai/ha) | phytotoxicity rating ECHCG ([14]; 250 g ai/ha) | phytotoxicity rating SETVI ([17]; 250 g ai/ha) | phytotoxicity rating SORHA ([19]; 250 g ai/ha) | crop damage rating CORN ([25]; 250 g ai/ha)
60: phytotoxicity rating XANST ([2]; 250 g ai/ha) | phytotoxicity rating SORHA ([6]; 63 g ai/ha) | phytotoxicity rating XANST ([15]; 250 g ai/ha) | phytotoxicity rating SORHA ([19]; 63 g ai/ha)
0: phytotoxicity rating XANST ([2]; 63 g ai/ha) | phytotoxicity rating XANST ([15]; 63 g ai/ha)
75: phytotoxicity rating AMBEL ([3]; 63 g ai/ha) | phytotoxicity rating AMBEL ([16]; 63 g ai/ha)
50: phytotoxicity rating SETVI ([4]; 63 g ai/ha) | phytotoxicity rating SETVI ([17]; 63 g ai/ha)
98: phytotoxicity rating DIGSA ([8]; 63 g ai/ha) | phytotoxicity rating CASOB ([10]; 250 g ai/ha) | phytotoxicity rating DIGSA ([21]; 63 g ai/ha) | phytotoxicity rating CASOB ([23]; 250 g ai/ha)
55: crop damage rating RICE ([13]; 250 g ai/ha) | crop damage rating RICE ([26]; 250 g ai/ha)
30: phytotoxicity rating ECHCO ([1]; 63 g ai/ha) | phytotoxicity rating ECHCG ([14]; 63 g ai/ha)
65: phytotoxicity rating CASOB ([10]; 63 g ai/ha) | phytotoxicity rating CASOB ([23]; 63 g ai/ha)
10: crop damage rating RICE ([13]; 63 g ai/ha) | crop damage rating RICE ([26]; 63 g ai/ha)

CC1CCCC(C)N1N=C(OC(=O)C(Cl)Cl)c1cc(-n2c(=O)cc(C(F)(F)F)n(C)c2=O)c(F)cc1Cl (centres unmarked) [Compound 4-8]
90: phytotoxicity rating ECHCO ([1]; 250 g ai/ha) | crop damage rating CORN ([12]; 63 g ai/ha) | phytotoxicity rating CASOB ([23]; 250 g ai/ha)
100: phytotoxicity rating XANST ([2]; 63 g ai/ha) | phytotoxicity rating XANST ([2]; 250 g ai/ha) | phytotoxicity rating AMBEL ([3]; 250 g ai/ha) | phytotoxicity rating IPOHE ([5]; 63 g ai/ha) | phytotoxicity rating IPOHE ([5]; 250 g ai/ha) | phytotoxicity rating CHEAL ([7]; 63 g ai/ha) | phytotoxicity rating CHEAL ([7]; 250 g ai/ha) | phytotoxicity rating AMARE [9, 27] | phytotoxicity rating AMARE ([9]; 250 g ai/ha, scale 0-100) | phytotoxicity rating ABUTH ([11]; 63 g ai/ha) | phytotoxicity rating ABUTH ([11]; 250 g ai/ha) | crop damage rating CORN ([12]; 250 g ai/ha) | phytotoxicity rating SETVI ([17]; 250 g ai/ha) | phytotoxicity rating IPOHE ([18]; 250 g ai/ha) | phytotoxicity rating CHEAL ([20]; 63 g ai/ha) | phytotoxicity rating CHEAL ([20]; 250 g ai/ha) | phytotoxicity rating AMARE ([22]; 63 g ai/ha) | phytotoxicity rating AMARE ([22]; 250 g ai/ha) | phytotoxicity rating ABUTH ([24]; 63 g ai/ha) | phytotoxicity rating ABUTH ([24]; 250 g ai/ha)
99: phytotoxicity rating AMBEL ([16]; 250 g ai/ha) | phytotoxicity rating DIGSA ([21]; 250 g ai/ha)
70: phytotoxicity rating ECHCO ([1]; 63 g ai/ha) | phytotoxicity rating CASOB ([10]; 63 g ai/ha)
80: phytotoxicity rating AMBEL ([3]; 63 g ai/ha) | phytotoxicity rating SORHA ([19]; 250 g ai/ha)
95: phytotoxicity rating IPOHE ([18]; 63 g ai/ha)
15: phytotoxicity rating SETVI ([4]; 63 g ai/ha) | crop damage rating RICE ([13]; 250 g ai/ha) | phytotoxicity rating ECHCG ([14]; 250 g ai/ha)
60: phytotoxicity rating SETVI ([4]; 250 g ai/ha) | phytotoxicity rating XANST ([15]; 250 g ai/ha) | phytotoxicity rating AMBEL ([16]; 63 g ai/ha) | phytotoxicity rating CASOB ([23]; 63 g ai/ha)
0: phytotoxicity rating DIGSA ([8]; 63 g ai/ha) | crop damage rating RICE ([13]; 63 g ai/ha) | phytotoxicity rating ECHCG ([14]; 63 g ai/ha) | phytotoxicity rating SORHA ([19]; 63 g ai/ha) | crop damage rating CORN ([25]; 63 g ai/ha) | crop damage rating RICE ([26]; 63 g ai/ha) | crop damage rating RICE ([26]; 250 g ai/ha)
75: phytotoxicity rating DIGSA ([8]; 250 g ai/ha) | phytotoxicity rating CASOB ([10]; 250 g ai/ha)
30: phytotoxicity rating XANST ([15]; 63 g ai/ha)
65: phytotoxicity rating SORHA ([6]; 250 g ai/ha) | phytotoxicity rating SETVI ([17]; 63 g ai/ha)
10: phytotoxicity rating SORHA ([6]; 63 g ai/ha)
50: phytotoxicity rating DIGSA ([21]; 63 g ai/ha) | crop damage rating CORN ([25]; 250 g ai/ha)
